According to PubChem BioAssay AID2060626 (Molecular Pharmacology Branch, DTP, NCI, 2025):
pIC50: −log10 of the molar value.

Tested on: 168753-222-R-J1-PDC complex spheroid viability
Test: Anticancer human tumor 168753-222-R-J1-PDC patient-derived bladder carcinoma cell line growth inhibition [CLK]
Settings: for pIC50: curve of first compound; for viability, T/C: stronger effect = lower value
Method in brief: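 Patient-derived tumor cells grown as complex spheroids with HUVEC endothelial cells and mesenchymal stem cells, treated with drug combinations. Concentrations descend in half-log steps from near clinical Cmax, or from 10 microM if Cmax unknown.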

[1] = second compound 0.0316 µM, first compound 0.0316 µM
[2] = second compound 0.0316 µM, first compound 0.1 µM
[3] = second compound 0.0316 µM, first compound 0.316 µM
[4] = second compound 0.0316 µM, first compound 1 µM
[5] = second compound 0.0316 µM, first compound 3.16 µM
[6] = second compound 0.0316 µM, first compound 10 µM
[7] = second compound 0.1 µM, first compound 0.0316 µM
[8] = second compound 0.1 µM, first compound 0.1 µM
[9] = second compound 0.1 µM, first compound 0.316 µM
[10] = second compound 0.1 µM, first compound 1 µM
[11] = second compound 0.1 µM, first compound 3.16 µM
[12] = second compound 0.1 µM, first compound 10 µM
[13] = second compound 0.316 µM, first compound 0.0316 µM
[14] = second compound 0.316 µM, first compound 0.1 µM
[15] = second compound 0.316 µM, first compound 0.316 µM
[16] = second compound 0.316 µM, first compound 1 µM
[17] = second compound 0.316 µM, first compound 3.16 µM
[18] = second compound 0.316 µM, first compound 10 µM
[19] = second compound 1 µM, first compound 0.0316 µM
[20] = second compound 1 µM, first compound 0.1 µM
[21] = second compound 1 µM, first compound 0.316 µM
[22] = second compound 1 µM, first compound 1 µM
[23] = second compound 1 µM, first compound 3.16 µM
[24] = second compound 1 µM, first compound 10 µM
[25] = second compound 3.16 µM, first compound 0.0316 µM
[26] = second compound 3.16 µM, first compound 0.1 µM
[27] = second compound 3.16 µM, first compound 0.316 µM
[28] = second compound 3.16 µM, first compound 1 µM
[29] = second compound 3.16 µM, first compound 3.16 µM
[30] = second compound 3.16 µM, first compound 10 µM
[31] = second compound 10 µM, first compound 0.0316 µM
[32] = second compound 10 µM, first compound 0.1 µM
[33] = second compound 10 µM, first compound 0.316 µM
[34] = second compound 10 µM, first compound 1 µM
[35] = second compound 10 µM, first compound 3.16 µM
[36] = second compound 10 µM, first compound 10 µM
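Further: viability measured after seven days of drug exposure.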
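Wherever viability, T/C is given: luminescence signal used as surrogate for viable cell amount; 100% = DMSO vehicle control wells.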

Question: What does the source list for `COC1C=CCC(C)C(C)S(=O)(=O)NC(=O)c2ccc3c(c2)N(CC2CCC21)CC1(CCCc2cc(Cl)ccc21)CO3` (stereo not drawn) + CNC(=O)c1ccc(Nc2nc(OC3CCCC3)c3c(-c4ccc5nc(C)oc5c4)c[nH]c3n2)c(OC)c1?
Answer: pIC50 (second compound 0.0316 µM): 5.64; pIC50 (second compound 0.1 µM): 5.67; pIC50 (second compound 0.316 µM): 6.69; pIC50 (second compound 1 µM): > 7.50; pIC50 (second compound 3.16 µM): > 7.50; pIC50 (second compound 10 µM): > 7.50; viability, T/C [1]: 105%; viability, T/C [2]: 118%; viability, T/C [3]: 101%; viability, T/C [4]: 87.6%; viability, T/C [5]: 34.6%; viability, T/C [6]: 13.6%; viability, T/C [7]: 102%; viability, T/C [8]: 106%; viability, T/C [9]: 101%; viability, T/C [10]: 78.5%; viability, T/C [11]: 35.9%; viability, T/C [12]: 18.9%; viability, T/C [13]: 75.9%; viability, T/C [14]: 74%; viability, T/C [15]: 35%; viability, T/C [16]: 29.7%; viability, T/C [17]: 30%; viability, T/C [18]: 11.9%; viability, T/C [19]: 33%; viability, T/C [20]: 22.6%; viability, T/C [21]: 15.8%; viability, T/C [22]: 13.6%; viability, T/C [23]: 14.9%; viability, T/C [24]: 9.33%; viability, T/C [25]: 20.9%; viability, T/C [26]: 15.9%; viability, T/C [27]: 16.9%; viability, T/C [28]: 11.5%; viability, T/C [29]: 15.3%; viability, T/C [30]: 7.77%; viability, T/C [31]: 18%; viability, T/C [32]: 15.3%; viability, T/C [33]: 16.7%; viability, T/C [34]: 10.5%; viability, T/C [35]: 11.3%; viability, T/C [36]: 11.4%

Question: With `CCCS(=O)(=O)Nc1ccc(F)c(C(=O)c2c[nH]c3ncc(-c4ccc(Cl)cc4)cc23)c1F` + CN1CCN(c2cc(C(=O)Nc3cc4cc(-c5cnn(C)c5)ccc4cn3)ccn2)CC1 as the molecule, how does the pIC50 (second compound 0.0316 µM) read?
Answer: < 5.00

Question: And the pIC50 (second compound 0.1 µM)?
Answer: 5.11

Question: What about the pIC50 (second compound 0.316 µM) of the same molecule?
Answer: > 7.50

Question: What about the pIC50 (second compound 1 µM) of the same molecule?
Answer: > 7.50

Question: And the pIC50 (second compound 3.16 µM)?
Answer: > 7.50

Question: What about the pIC50 (second compound 10 µM) of the same molecule?
Answer: > 7.50

Question: And the viability, T/C [1]?
Answer: 96.7%

Question: What about the viability, T/C [2] of the same molecule?
Answer: 116%

Question: And the viability, T/C [3]?
Answer: 112%

Question: What about the viability, T/C [4] of the same molecule?
Answer: 122%

Question: What about the viability, T/C [5] of the same molecule?
Answer: 112%

Question: What about the viability, T/C [6] of the same molecule?
Answer: 59.5%

Question: What about the viability, T/C [7] of the same molecule?
Answer: 80.1%

Question: And the viability, T/C [8]?
Answer: 94.7%

Question: What about the viability, T/C [9] of the same molecule?
Answer: 58.3%

Question: And the viability, T/C [10]?
Answer: 88.5%

Question: And the viability, T/C [11]?
Answer: 86.5%

Question: And the viability, T/C [12]?
Answer: 41.5%

Question: And the viability, T/C [13]?
Answer: 15.8%

Question: What about the viability, T/C [14] of the same molecule?
Answer: 17.8%

Question: And the viability, T/C [15]?
Answer: 16%

Question: What about the viability, T/C [16] of the same molecule?
Answer: 14.7%

Question: What about the viability, T/C [17] of the same molecule?
Answer: 20.1%

Question: And the viability, T/C [18]?
Answer: 22.1%

Question: What about the viability, T/C [19] of the same molecule?
Answer: 0.38%

Question: What about the viability, T/C [20] of the same molecule?
Answer: 0.46%

Question: What about the viability, T/C [21] of the same molecule?
Answer: 0.31%

Question: And the viability, T/C [22]?
Answer: 0.33%

Question: What about the viability, T/C [23] of the same molecule?
Answer: 0.96%

Question: What about the viability, T/C [24] of the same molecule?
Answer: 2.48%

Question: And the viability, T/C [25]?
Answer: 0.11%

Question: What about the viability, T/C [26] of the same molecule?
Answer: 1.81%

Question: And the viability, T/C [27]?
Answer: 0.12%

Question: And the viability, T/C [28]?
Answer: 0.11%

Question: What about the viability, T/C [29] of the same molecule?
Answer: 2.3%

Question: And the viability, T/C [30]?
Answer: 1.36%

Question: What about the viability, T/C [31] of the same molecule?
Answer: 0.16%

Question: And the viability, T/C [32]?
Answer: 2.21%

Question: And the viability, T/C [33]?
Answer: 0.61%

Question: What about the viability, T/C [34] of the same molecule?
Answer: 0.3%

Question: What about the viability, T/C [35] of the same molecule?
Answer: 3.61%

Question: What about the viability, T/C [36] of the same molecule?
Answer: 3.12%

Question: What does the source list for `Nc1ccn(C2OC(CO)C(O)C2(F)F)c(=O)n1` (stereo not drawn) + CNC(=O)c1ccc(Nc2nc(OC3CCCC3)c3c(-c4ccc5nc(C)oc5c4)c[nH]c3n2)c(OC)c1?
Answer: pIC50 (second compound 0.0316 µM): 6.01; pIC50 (second compound 0.1 µM): 6.20; pIC50 (second compound 0.316 µM): 6.80; pIC50 (second compound 1 µM): > 7.50; pIC50 (second compound 3.16 µM): > 7.50; pIC50 (second compound 10 µM): > 7.50; viability, T/C [1]: 95.2%; viability, T/C [2]: 73.2%; viability, T/C [3]: 48.7%; viability, T/C [4]: 57.2%; viability, T/C [5]: 51.2%; viability, T/C [6]: 37.9%; viability, T/C [7]: 88.4%; viability, T/C [8]: 75.7%; viability, T/C [9]: 50.3%; viability, T/C [10]: 49.9%; viability, T/C [11]: 34.2%; viability, T/C [12]: 25.4%; viability, T/C [13]: 84.2%; viability, T/C [14]: 64.5%; viability, T/C [15]: 28%; viability, T/C [16]: 17.1%; viability, T/C [17]: 26.8%; viability, T/C [18]: 22.1%; viability, T/C [19]: 43.5%; viability, T/C [20]: 18.9%; viability, T/C [21]: 17.9%; viability, T/C [22]: 16.4%; viability, T/C [23]: 16.9%; viability, T/C [24]: 17.4%; viability, T/C [25]: 21%; viability, T/C [26]: 18.4%; viability, T/C [27]: 18%; viability, T/C [28]: 16.8%; viability, T/C [29]: 16.4%; viability, T/C [30]: 15.5%; viability, T/C [31]: 18.2%; viability, T/C [32]: 18.4%; viability, T/C [33]: 17.4%; viability, T/C [34]: 15.4%; viability, T/C [35]: 17.1%; viability, T/C [36]: 16.2%

Question: With `COc1cccc2c1C(=O)c1c(O)c3c(c(O)c1C2=O)CC(O)(C(=O)CO)CC3OC1CC(N)C(O)C(C)O1` (stereo not drawn) + CNC(=O)c1ccc(Nc2nc(OC3CCCC3)c3c(-c4ccc5nc(C)oc5c4)c[nH]c3n2)c(OC)c1 as the molecule, how does the pIC50 (second compound 0.0316 µM) read?
Answer: 6.54

Question: And the pIC50 (second compound 0.1 µM)?
Answer: 6.58

Question: What about the pIC50 (second compound 0.316 µM) of the same molecule?
Answer: 6.85

Question: What about the pIC50 (second compound 1 µM) of the same molecule?
Answer: > 7.50

Question: What about the pIC50 (second compound 3.16 µM) of the same molecule?
Answer: > 7.50

Question: And the pIC50 (second compound 10 µM)?
Answer: > 7.50

Question: And the viability, T/C [1]?
Answer: 83.8%

Question: What about the viability, T/C [2] of the same molecule?
Answer: 73.1%

Question: What about the viability, T/C [3] of the same molecule?
Answer: 50%

Question: And the viability, T/C [4]?
Answer: 14.6%

Question: And the viability, T/C [5]?
Answer: 13.7%

Question: What about the viability, T/C [6] of the same molecule?
Answer: 0.12%

Question: What about the viability, T/C [7] of the same molecule?
Answer: 94.5%

Question: What about the viability, T/C [8] of the same molecule?
Answer: 72.3%

Question: And the viability, T/C [9]?
Answer: 49.8%

Question: What about the viability, T/C [10] of the same molecule?
Answer: 14.9%

Question: What about the viability, T/C [11] of the same molecule?
Answer: 15.6%

Question: And the viability, T/C [12]?
Answer: 0.1%

Question: What about the viability, T/C [13] of the same molecule?
Answer: 71.9%

Question: And the viability, T/C [14]?
Answer: 57.7%

Question: And the viability, T/C [15]?
Answer: 33.1%

Question: And the viability, T/C [16]?
Answer: 14.1%

Question: What about the viability, T/C [17] of the same molecule?
Answer: 8%

Question: And the viability, T/C [18]?
Answer: 0.12%

Question: What about the viability, T/C [19] of the same molecule?
Answer: 30.2%

Question: And the viability, T/C [20]?
Answer: 18.5%

Question: What about the viability, T/C [21] of the same molecule?
Answer: 15.2%

Question: And the viability, T/C [22]?
Answer: 14.1%

Question: What about the viability, T/C [23] of the same molecule?
Answer: 6.77%

Question: And the viability, T/C [24]?
Answer: 0.13%

Question: What about the viability, T/C [25] of the same molecule?
Answer: 18.4%

Question: And the viability, T/C [26]?
Answer: 17.9%

Question: And the viability, T/C [27]?
Answer: 13.3%

Question: And the viability, T/C [28]?
Answer: 12.1%

Question: And the viability, T/C [29]?
Answer: 2.89%

Question: And the viability, T/C [30]?
Answer: 0.14%

Question: What about the viability, T/C [31] of the same molecule?
Answer: 16%

Question: And the viability, T/C [32]?
Answer: 16%

Question: And the viability, T/C [33]?
Answer: 12.1%

Question: And the viability, T/C [34]?
Answer: 11.2%

Question: What about the viability, T/C [35] of the same molecule?
Answer: 0.71%

Question: And the viability, T/C [36]?
Answer: 0.24%
